Data published in PubChem BioAssay (NCI).
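Values below derive from 48-hour exposures of cells grown in 96-well plates, with endpoints linearly interpolated between the two concentrations bracketing the appropriate inhibition level. GI50: concentration for 50% inhibition of growth. Definition used: TGI = concentration required for complete inhibition of growth.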

What was measured:
Test in all cases: NCI-60 cell line screen, 48 h
OVCAR-4 ovarian = system: OVCAR-4 ovarian
UACC-257 melanoma = system: UACC-257 melanoma
ACHN renal = system: ACHN renal
786-0 renal = system: 786-0 renal
PC-3 prostate = system: PC-3 prostate
BT-549 breast = system: BT-549 breast
K-562 leukemia = system: K-562 leukemia
SK-MEL-5 melanoma = system: SK-MEL-5 melanoma
LOX IMVI melanoma = system: LOX IMVI melanoma
NCI-H23 lung = system: NCI-H23 lung
SF-295 CNS = system: SF-295 CNS
IGROV1 ovarian = system: IGROV1 ovarian
OVCAR-3 ovarian = system: OVCAR-3 ovarian
DU-145 prostate = system: DU-145 prostate
HT29 colon = system: HT29 colon
RXF 393 renal = system: RXF 393 renal
SNB-19 CNS = system: SNB-19 CNS
NCI/ADR-RES ovarian = system: NCI/ADR-RES ovarian
SNB-75 CNS = system: SNB-75 CNS
TK-10 renal = system: TK-10 renal
HCC-2998 colon = system: HCC-2998 colon
CCRF-CEM leukemia = system: CCRF-CEM leukemia
SK-MEL-28 melanoma = system: SK-MEL-28 melanoma
HOP-92 NSCLC = system: HOP-92 NSCLC
HL-60(TB) leukemia = system: HL-60(TB) leukemia
SK-MEL-2 melanoma = system: SK-MEL-2 melanoma
HS 578T breast = system: HS 578T breast
A498 renal = system: A498 renal
NCI-H226 lung = system: NCI-H226 lung
SN12C renal = system: SN12C renal
NCI-H522 lung = system: NCI-H522 lung
A549 NSCLC = system: A549 NSCLC
OVCAR-5 ovarian = system: OVCAR-5 ovarian
OVCAR-8 ovarian = system: OVCAR-8 ovarian
MDA-MB-435 = system: MDA-MB-435
SR leukemia = system: SR leukemia
RPMI-8226 leukemia = system: RPMI-8226 leukemia
UO-31 renal = system: UO-31 renal
HCT-15 colon = system: HCT-15 colon
EKVX NSCLC = system: EKVX NSCLC
SF-539 CNS = system: SF-539 CNS
M14 melanoma = system: M14 melanoma
T-47D breast = system: T-47D breast
KM12 colon = system: KM12 colon
UACC-62 melanoma = system: UACC-62 melanoma
MOLT-4 leukemia = system: MOLT-4 leukemia
MDA-MB-231 breast = system: MDA-MB-231 breast
SF-268 CNS = system: SF-268 CNS
SW-620 colon = system: SW-620 colon
SK-OV-3 ovarian = system: SK-OV-3 ovarian
HOP-62 NSCLC = system: HOP-62 NSCLC
COLO 205 colon = system: COLO 205 colon
U251 CNS = system: U251 CNS
NCI-H460 lung = system: NCI-H460 lung
MALME-3M melanoma = system: MALME-3M melanoma

Structure (SMILES): O=C(C[n+]1cccc2cc(Cl)ccc21)c1ccc2c(c1)CCCC2
- GI50 (OVCAR-4 ovarian): 0.982 µM
- TGI (OVCAR-4 ovarian): 2.99 µM
- GI50 (UACC-257 melanoma): 1.5 µM
- TGI (UACC-257 melanoma): 3.58 µM
- GI50 (ACHN renal): 4.91 µM
- TGI (ACHN renal): 18.5 µM
- GI50 (786-0 renal): 2.01 µM
- TGI (786-0 renal): 5.25 µM
- GI50 (PC-3 prostate): 0.933 µM
- TGI (PC-3 prostate): 3.61 µM
- GI50 (BT-549 breast): 1.11 µM
- TGI (BT-549 breast): 2.97 µM
- GI50 (K-562 leukemia): 1.32 µM
- TGI (K-562 leukemia): 10.3 µM
- GI50 (SK-MEL-5 melanoma): 1.26 µM
- TGI (SK-MEL-5 melanoma): 2.55 µM
- GI50 (LOX IMVI melanoma): 0.831 µM
- TGI (LOX IMVI melanoma): 2.24 µM
- GI50 (NCI-H23 lung): 1.14 µM
- TGI (NCI-H23 lung): 4.44 µM
- GI50 (SF-295 CNS): 1.77 µM
- TGI (SF-295 CNS): 4.22 µM
- GI50 (IGROV1 ovarian): 1.52 µM
- TGI (IGROV1 ovarian): 4.08 µM
- GI50 (OVCAR-3 ovarian): 0.875 µM
- TGI (OVCAR-3 ovarian): 2.26 µM
- GI50 (DU-145 prostate): 1.46 µM
- TGI (DU-145 prostate): 3.33 µM
- GI50 (HT29 colon): 1.66 µM
- TGI (HT29 colon): 3.44 µM
- GI50 (RXF 393 renal): 1.69 µM
- TGI (RXF 393 renal): 3.81 µM
- GI50 (SNB-19 CNS): 1.12 µM
- TGI (SNB-19 CNS): 2.65 µM
- GI50 (NCI/ADR-RES ovarian): 19.9 µM
- TGI (NCI/ADR-RES ovarian): 67.3 µM
- GI50 (SNB-75 CNS): 1.35 µM
- TGI (SNB-75 CNS): 3.2 µM
- GI50 (TK-10 renal): 2.21 µM
- TGI (TK-10 renal): 4.65 µM
- GI50 (HCC-2998 colon): 1.6 µM
- TGI (HCC-2998 colon): 3.28 µM
- GI50 (CCRF-CEM leukemia): 1.59 µM
- TGI (CCRF-CEM leukemia): 8.74 µM
- GI50 (SK-MEL-28 melanoma): 1.62 µM
- TGI (SK-MEL-28 melanoma): 3.19 µM
- GI50 (HOP-92 NSCLC): 1.58 µM
- TGI (HOP-92 NSCLC): 3.22 µM
- GI50 (HL-60(TB) leukemia): 0.882 µM
- TGI (HL-60(TB) leukemia): 3.95 µM
- GI50 (SK-MEL-2 melanoma): 1.68 µM
- TGI (SK-MEL-2 melanoma): 3.41 µM
- GI50 (HS 578T breast): 2.03 µM
- TGI (HS 578T breast): 5.43 µM
- GI50 (A498 renal): 3.56 µM
- TGI (A498 renal): 13.3 µM
- GI50 (NCI-H226 lung): 1.48 µM
- TGI (NCI-H226 lung): 3.48 µM
- GI50 (SN12C renal): 1.27 µM
- TGI (SN12C renal): 3.04 µM
- GI50 (NCI-H522 lung): 1.51 µM
- TGI (NCI-H522 lung): 4.33 µM
- GI50 (A549 NSCLC): 3.7 µM
- TGI (A549 NSCLC): 13.5 µM
- GI50 (OVCAR-5 ovarian): 1.84 µM
- TGI (OVCAR-5 ovarian): 4.54 µM
- GI50 (OVCAR-8 ovarian): 2.98 µM
- TGI (OVCAR-8 ovarian): 11.2 µM
- GI50 (MDA-MB-435): 1.61 µM
- TGI (MDA-MB-435): 3.38 µM
- GI50 (SR leukemia): 0.758 µM
- TGI (SR leukemia): 6.18 µM
- GI50 (RPMI-8226 leukemia): 0.91 µM
- TGI (RPMI-8226 leukemia): 4.09 µM
- GI50 (UO-31 renal): 5.71 µM
- TGI (UO-31 renal): 20.4 µM
- GI50 (HCT-15 colon): 11.8 µM
- TGI (HCT-15 colon): 31.7 µM
- GI50 (EKVX NSCLC): 2.46 µM
- TGI (EKVX NSCLC): 11.3 µM
- GI50 (SF-539 CNS): 1.4 µM
- TGI (SF-539 CNS): 2.85 µM
- GI50 (M14 melanoma): 1.48 µM
- TGI (M14 melanoma): 3.2 µM
- GI50 (T-47D breast): 1.09 µM
- TGI (T-47D breast): 2.71 µM
- GI50 (KM12 colon): 1.46 µM
- TGI (KM12 colon): 3.36 µM
- GI50 (UACC-62 melanoma): 1.54 µM
- TGI (UACC-62 melanoma): 3.49 µM
- GI50 (MOLT-4 leukemia): 1.41 µM
- TGI (MOLT-4 leukemia): 4.5 µM
- GI50 (MDA-MB-231 breast): 1.5 µM
- TGI (MDA-MB-231 breast): 3.25 µM
- GI50 (SF-268 CNS): 1.44 µM
- TGI (SF-268 CNS): 3.29 µM
- GI50 (SW-620 colon): 2.03 µM
- TGI (SW-620 colon): 4.97 µM
- GI50 (SK-OV-3 ovarian): 1.72 µM
- TGI (SK-OV-3 ovarian): 6.94 µM
- GI50 (HOP-62 NSCLC): 1.65 µM
- TGI (HOP-62 NSCLC): 3.85 µM
- GI50 (COLO 205 colon): 1.5 µM
- TGI (COLO 205 colon): 3.01 µM
- GI50 (U251 CNS): 0.595 µM
- TGI (U251 CNS): 1.86 µM
- GI50 (NCI-H460 lung): 1.86 µM
- TGI (NCI-H460 lung): 3.68 µM
- GI50 (MALME-3M melanoma): 1.2 µM
- TGI (MALME-3M melanoma): 2.63 µM
